Read-outs that look alike come from different tables or passages of the source. Starred links: 1 amine or outer side, 2 acyl side, 3 side chain; linkers in the order of their positions; H or OH if unused. Positions of bridges follow the written chain, without caps; N, C: chain ends. Non-standard residues stand in square brackets, D forms with d. Residues, ends and D or L forms follow the SMILES beside them. *: point of attachment. NMeF = CN[C@@H](Cc1ccccc1)C(=O)O; NMeI = CC[C@H](C)[C@H](NC)C(=O)O; NMeβAla = CN(CCC(=O)[*:2])[*:1]; NMeD = CN[C@@H](CC(=O)O)C(=O)O; NMeL = CN[C@@H](CC(C)C)C(=O)O; NMeV = CN[C@H](C(=O)O)C(C)C; NMeAbu = CC[C@H](NC)C(=O)O; NMeA = CN[C@@H](C)C(=O)O; Piperidide = C1CCN(*)CC1; Abu = CC[C@H](N)C(=O)O; NBuGly = CCCCNCC(=O)O; Sar = CNCC(=O)O; tBu = CC(C)(C)*
Legend:
[1] = Metabolic stability test: liver microsomal stability assay; assay type: in vitro ADME, mouse; settings: for microsomal CLint at 1 µM: male, pH 7.4, presence of NADPH, read-out: Mouse Hepatic Microsome CLh,int NADPH(+)
Caco-2 cells = experiment: Membrane permeability test using Caco-2 cells with preincubation; assay type: in vitro ADME
[2] = as above; assay type: in vitro ADME; settings: Caco-2
[3] = mouse liver microsomes 0.5 mg protein/mL, compound 1 µM
[4] = mouse liver microsomes 0.5 mg protein/mL, compound 1 µM, absence of NADPH
[5] = Caco-2 cells, preincubation 20 to 24 hours, apical FaSSIF/HBSS 1% DMSO pH 6.0, basal HBSS 4% BSA pH 7.4, basal sample at 180 minutes
[6] = preincubation 20 to 24 hours, Apical FaSSIF/HBSS pH 6.0, Basal HBSS 4% BSA pH 7.4, 180 minutes, read-out: Caco2 Papp

Structure (SMILES)	microsomal CLint at 1 µM [1, 3] [µL/min/mg]	Mouse Hepatic Microsome CLh,int NADPH(-) [1, 4] [µL/min/mg Protein]	Caco2 Papp (10^-6 cm/sec) (Caco-2 cells; [5])	Papp A→B [2, 6] [×10⁻⁶ cm/s]	Mouse Hepatic Microsome CLh,int NADPH(-) [1] [µL/min/mg Protein]	Caco2 Papp (10^-6 cm/sec) (Caco-2 cells; Caco-2)	Papp A→B [2] [×10⁻⁶ cm/s]
CC[C@@H]1NC(=O)[C@H](CC(C)C)N(C)C(=O)C[C@@H](C(=O)N2CCCCC2)N(C)C(=O)[C@H](C(C)C)NC(=O)[C@H](CC(C)C)N(C)C(=O)[C@H](C)NC(=O)[C@H](CC)N(C)C(=O)[C@H](C(C)C)NC(=O)[C@H](CC(C)C)N(C)C(=O)[C@H](C)N(C)C(=O)[C@H](Cc2ccccc2)N(C)C(=O)[C@H](C(C)C)NC(=O)[C@@H]2CCCN2C(=O)[C@H](C(C)C)N(C)C1=O [pd078] ([NMeL][Abu][NMeV]PV[NMeF][NMeA][NMeL]V[NMeAbu]A[NMeL]V[NMeD]-Piperidide; lactam N-14)	28.3	22.9	2.75 10^-6 cm/sec	2.75			
CC[C@H](C)[C@@H]1NC(=O)[C@H](CC(C)C)N(C)C(=O)[C@H](CC(C)C)NC(=O)[C@H](C)N(C)C(=O)C[C@@H](C(=O)N2CCCCC2)N(C)C(=O)[C@H](C)N(C)C(=O)[C@H](CC(C)C)NC(=O)[C@H](C(C)C)N(C)C(=O)[C@H](CC(C)C)N(C)C(=O)CNC(=O)[C@H]([C@@H](C)CC)N(C)C(=O)[C@H](Cc2ccccc2)N(C)C(=O)[C@H](C)NC(=O)[C@H](Cc2ccccc2)N(C)C1=O [pd079] ([NMeA]L[NMeL]I[NMeF]A[NMeF][NMeI]G[NMeL][NMeV]L[NMeA][NMeD]-Piperidide; lactam N-14)	26.1	38.4	0.12 10^-6 cm/sec	0.12			
CC[C@@H]1NC(=O)[C@H](C(C)C)N(C)C(=O)[C@H](C)N(C)C(=O)[C@H](Cc2ccccc2)N(C)C(=O)[C@H](CC(C)C)NC(=O)[C@H](Cc2ccccc2)N(C)C(=O)[C@H](C(C)C)NC(=O)[C@H](CC(C)C)N(C)C(=O)[C@H]([C@@H](C)CC)NC(=O)[C@H](CC(C)C)N(C)C(=O)CN(C)C(=O)C[C@@H](C(=O)N2CCCCC2)N(C)C(=O)CNC(=O)[C@H](C)N(C)C1=O [pd080] ([Sar][NMeL]I[NMeL]V[NMeF]L[NMeF][NMeA][NMeV][Abu][NMeA]G[NMeD]-Piperidide; lactam N-14)	29.3	27.8	0.25 10^-6 cm/sec	0.25			
CC[C@H](C)[C@@H]1NC(=O)[C@H]([C@@H](C)CC)N(C)C(=O)[C@@H](C)NC(=O)C[C@@H](C(=O)N2CCCCC2)N(C)C(=O)[C@H](Cc2ccccc2)N(C)C(=O)[C@H](C(C)C)NC(=O)CCN(C)C(=O)[C@H](CC)N(C)C(=O)[C@H](CC(C)C)N(C)C(=O)[C@H](C)NC(=O)CN(C)C(=O)[C@H](CC(C)C)N(C)C(=O)CCN(C)C(=O)[C@H](Cc2ccccc2)N(C)C1=O [pd081] ([dA][NMeI]I[NMeF][NMeβAla][NMeL][Sar]A[NMeL][NMeAbu][NMeβAla]V[NMeF][NMeD]-Piperidide; lactam N-14)					5.7	0.02 10^-6 cm/sec	0.02
CCCCN1CC(=O)N(C)[C@@H](Cc2ccccc2)C(=O)N[C@@H](COC(C)(C)C)C(=O)N(C)[C@@H](CC(C)C)C(=O)N(C)[C@@H](CC)C(=O)N(C)[C@@H](C)C(=O)N[C@@H]([C@@H](C)CC)C(=O)N(C)[C@@H](C(C)C)C(=O)N[C@@H](C(C)C)C(=O)N(C)[C@H](C(=O)N2CCCCC2)CC(=O)N(C)CCC(=O)N(C)[C@@H](CC(C)C)C(=O)N[C@@H]([C@@H](C)CC)C(=O)N(C)[C@@H](Cc2ccccc2)C1=O [pd082] ([NMeβAla][NMeL]I[NMeF][NBuGly][NMeF]S(tBu)[NMeL][NMeAbu][NMeA]I[NMeV]V[NMeD]-Piperidide; lactam N-14)	32.6	38.5	0.03 10^-6 cm/sec	0.03			

From patent EP4768499A1, “MACROCYCLIC PEPTIDE COMPOUND HAVING CELL MEMBRANE PERMEABILITY AND METABOLIC STABILITY, AND LIBRARY CONTAINING SAME” (Chugai Seiyaku Kabushiki Kaisha, priority 2023, dated 2025)
